Assay results taken from patent publication US20100137344A1, “INDUCTION OF ANALGESIA IN NEUROPATHIC PAIN” (University Court of the University of Edinburgh, priority 2006, published 2010).

Tested on: rats with chronic constriction injury (CCI) to sciatic nerve
Experiment: Topical application to paws of CCI rats, behavioural reflex testing (thermal PWL, mechanical PWT)
Type: in vivo, rat
Details: for % reversal of ipsilateral sensitisation, PWL / % reversal of ipsilateral sensitisation, PWT: 10-25 minutes after icilin
Procedure: Pain models were generated under halothane anaesthesia (Zeneca, Cheshire, UK). For the chronic constriction injury (CCI) model of neuropathic pain, four ligatures were tied loosely to constrict the sciatic nerve at mid-thigh level (as described previously^[39]). An inflammatory pain model was generated by injecting 100 μl of Complete Freund's Adjuvant (CFA, Sigma-Aldrich Ltd) into the ventral surface of the right hindpaw^[39]. A model of peripheral demyelination-induced pain was produced by focal application of lysolecithin to the sciatic nerve^[40]. Peak behavioural sensitisation was observed post-surgically between days 10-16 for CCI, 1-3 for CFA, and 7-14 for lysolecithin, when pharmacological and electrophysiological experiments and tissue removal were conducted.
Thermal sensitivity was assessed by measuring paw withdrawal latency (PWL, s) in response to a noxious thermal stimulus (Hargreaves' thermal stimulator, Linton Instrumentation, Diss, UK) directed to the hindpaw mid-plantar glabrous surface. Mechanical sensitivity was recorded as the paw withdrawal threshold (PWT, mN/mm^2) to calibrated von Frey filaments (Stoelting, Ill., US), as previously described^[39]. Sensitivity to noxious cold was assessed by placing animals in a waterbath with an aluminium floor containing 1 cm deep 4° C. water and counting the time the paw was held suspended over a 20 s period.
Icilin was applied at concentrations of 2.5-500 μM (in water with 0.2% DMF), by placing CCI or naïve rats unrestrained for 5 min in a 1 cm deep waterbath (sufficient to cover paws), which was thermostatically controlled to a temperature of 30° C., or by very lightly anaesthetising rats and immersing hindpaws in small tubes containing 5 ml icilin (500 μM-5 mM, with a vehicle of 45% dimethylformamide in 0.2% aqueous Tween 80) for 5 min, followed by sensory testing for 60-80 mins. The effects of (−)-menthol and its stereoisomers isomenthol (1S,2R,5R-menthol,) and (+)-menthol (1S,2R,5S(+)-menthol) (4-16 mM in 80% ethanol) were also assessed. Relevant vehicles were always assessed in similar experiments. As a contrast, the effect of cinnamaldehyde (1.5 mM in water) and the effect of cinnamaldehyde with additional icilin (80 μM in water with 0.2% DMF) were assessed in naïve animals. The effects of icilin (80 μM) were further assessed in CCI animals that had undergone antisense and mis-sense treatment for knockdown of TRPM8 or immediately following intrathecal injection of either LY 341495 or UBP 1112. […] The effects of brief paw immersion at different temperatures (10-22° C. for 5 min) on CCI rats were assessed by mechanical testing. The effects of intrathecal LY 341495 or UBP 1112 on the reversal of ipsilateral sensitisation in CCI following a 16° C. cool challenge for 5 min were measured. Reflex testing commenced 5 minutes following challenge, unless animals had been anaesthetised, in which case 15 minutes was allowed for recovery. Six replicate animals were tested in all pharmacological experiments.
Antisense and mis-sense oligonucleotides were 22-mers with phosphorothioate bonds at the last two positions at 5′ and 3′ ends (MWG Biotech, Ebersberg, Germany). Antisense extended from base −10 to base +12 relative to the start of the open reading frame for the rat TRPM8 gene: 5′ C*T*CGAAGGACATCTTGCCGT*G*G 3′, where * represents phosphorothioate linkages. Mis-sense was designed with 4 inversions of C/G or A/T as appropriate at residues 3, 11, 14 and 22, preserving overall G/C content. BLAST searches of both oligonucleotides indicated no significant complementarity to any known gene sequence. 14-day or 7-day osmotic minipumps (for CCI experiments or naïve electrophysiology experiments respectively—Alzet Minipump, models 2002, 2001; Charles River, UK) containing oligonucleotides (1 μg/μl in sterile saline) were connected to canulae inserted under the dura of the spinal cord to level L5/6 and produced a predicted infusion rate of 0.5 μl/h. […]

[1] = icilin 80 μM topical, antisense-treated CCI animals
[2] = icilin 80 μM topical, mis-sense-treated CCI animals
[3] = icilin 1000 μM applied to paw, CCI Con, 15 mins
[4] = icilin 1000 μM applied to paw, CCI Con, 50 mins
[5] = icilin 1000 μM applied to paw, CCI Ipsi, 15 mins
[6] = icilin 1000 μM applied to paw, CCI Ipsi, 50 mins
[7] = icilin 2500 μM applied to paw, CCI Con, 15 mins
[8] = icilin 2500 μM applied to paw, CCI Con, 50 mins
[9] = icilin 2500 μM applied to paw, CCI Ipsi, 15 mins
[10] = icilin 2500 μM applied to paw, CCI Ipsi, 50 mins
[11] = icilin 5000 μM applied to paw, CCI Con, 15 mins
[12] = icilin 5000 μM applied to paw, CCI Con, 50 mins
[13] = icilin 5000 μM applied to paw, CCI Ipsi, 15 mins
[14] = icilin 5000 μM applied to paw, CCI Ipsi, 50 mins
[15] = icilin topical, antisense osmotic pumps depleted, 18 days following surgery

O=C1NC(c2cccc([N+](=O)[O-])c2)=CCN1c1ccccc1O [icilin, 1-(2′-hydroxyphenyl)-4-(3″-nitrophenyl)-1,2,3,6-tetrahydropyrimidin-2-one]
reversal of CCI-induced behavioural reflex sensitisation to thermal and mechanical stimuli (icilin 80 μM topical, 5 min, bath at 30° C.): striking reversal
% reversal of ipsilateral sensitisation, PWL [1]: 7.7±7.4%
% reversal of ipsilateral sensitisation, PWT [1]: 9.4±8.2%
% reversal of ipsilateral sensitisation, PWL [2]: 82.8±6.9%
% reversal of ipsilateral sensitisation, PWT [2]: 58.7±8.2%
analgesia on daily repeated application (Hargreaves' test) (icilin 200 μM topical over four successive days): consistently causes analgesia
Mechanical PWT [3]: 4530.1 ± 300.5 mN/mm^2
Thermal PWL [3]: 16.1 ± 0.5 s
Mechanical PWT [4]: 4530.1 ± 300.5 mN/mm^2
Thermal PWL [4]: 15.2 ± 0.4 s
Mechanical PWT [5]: 702.8 ± 185.3 mN/mm^2
Thermal PWL [5]: 16.4 ± 0.8 s
Mechanical PWT [6]: 702.8 ± 185.3 mN/mm^2
Thermal PWL [6]: 8.6 ± 0.2 s
Mechanical PWT [7]: 4454.9 ± 245.9 mN/mm^2
Thermal PWL [7]: 16.8 ± 0.9 s
Mechanical PWT [8]: 4454.9 ± 245.9 mN/mm^2
Thermal PWL [8]: 15.3 ± 0.7 s
Mechanical PWT [9]: 651.9 ± 193.0 mN/mm^2
Thermal PWL [9]: 16.4 ± 0.9 s
Mechanical PWT [10]: 651.9 ± 193.0 mN/mm^2
Thermal PWL [10]: 8.4 ± 0.6 s
Mechanical PWT [11]: 2040.2 ± 115.2 mN/mm^2
Thermal PWL [11]: 16.1 ± 0.9 s
Mechanical PWT [12]: 4830.6 ± 0.0 mN/mm^2
Thermal PWL [12]: 13.4 ± 0.7 s
Mechanical PWT [13]: 412.2 ± 24.3 mN/mm^2
Thermal PWL [13]: 16.7 ± 1.0 s
Mechanical PWT [14]: 736.0 ± 26.3 mN/mm^2
Thermal PWL [14]: 7.2 ± 0.6 s
% reversal of sensitisation, PWL [15]: 83.7±10.1%
% reversal of sensitisation, PWT [15]: 54.0±7.2%

CC(C)[C@@H]1CC[C@@H](C)C[C@H]1O [(−)-menthol, 1R,2S,5R-(−)-menthol]
reversal of sensitised responses (topical, (−)-menthol 4 mM, isomenthol and (+)-menthol 8 mM and 16 mM): Specific reversal of sensitised responses
